This assay concerns B. napus DH 12075 microspore-derived embryos. The experiment in a line: conversion of microspore-derived embryos to seedlings (roots, shoots). The assay is classed as cell-based, Brassica napus. To be noted: embryos transferred to regeneration medium. From the text: All of the embryos that produced roots, except for the short embryo type, initiated root development from the root meristem, as evidenced by the development of roots within a few days of growth on germination medium.
In FIG. 12B, different types of embryos derived from different populations of microspores/pollen treated with DMSO (control) or different concentrations of HDACi were transferred to a regeneration medium and evaluated for their ability to produce shoots (a measure of conversion).

On to `O=C(CCCCCCC(=O)Nc1ccccc1)NO` [SAHA, suberoylanilide hydroxamic acid], for which the “germination (ability to produce shoots, a measure of conversion) compared to the control” value is “improved”.

For the origin of these results see patent US20210378193A1, “HAPLOID EMBRYOGENESIS” (STICHTING WAGENINGEN RESEARCH, priority 2013, published 2021).
